In US12202835B2, “Substituted aromatic ring-linked dioxinoquinazolines and dioxinoquinolines as kinase inhibitors” (BEIJING SCITECH-MQ PHARMACEUTICALS LIMITED, priority 2018, dated 2025) one finds IC50 data, which are given here for 18 compounds.

The IC50 is the concentration that gives 50% inhibition.

The target of experiment [1] is c-MET kinase (Homo sapiens (Human), UniProt P08581). The experiment in a line: Assay of small molecular compounds for inhibiting the activity of c-MET kinase (LANCE TR-FRET). The class given is biochemical. Particulars: read-out: CMET IC50. The gist of the method: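 LANCE TR-FRET assay with c-MET at 1 nM final after a 5 min room-temperature preincubation with compound (11-point, 3-fold series, 2500–0.042 nM final, 4% DMSO). ULight-JAK-1 (Tyr1023) peptide (100 nM final) and ATP (10 μM final) reacted 60 min in the dark. Inhibition was taken relative to controls, then IC50 fitted.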

Experiment [2] concerns the target VEGFR-2 kinase (Homo sapiens (Human), UniProt P35968). The experiment in a line: Assay of small molecular compounds for inhibiting the activity of VEGFR-2 kinase (LANCE TR-FRET). Particulars: read-out: VEGFR2 IC50. The class given is biochemical. The gist of the method:
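LANCE TR-FRET with human VEGFR-2 (2× stock 0.5 nM) preincubated 30 min with compound (final 2500 to 0.042 nM, 11-point 3-fold), then ULight-JAK-1 (Tyr1023) peptide/ATP added (4× stocks 200 nM/40 μM). Reaction 60 min room temperature, 4% DMSO; IC50 from inhibition-rate curve.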
On the technique in general: In TR-FRET formats the signal depends on donor and acceptor labels being close together.

Experiment [3] has as its system MHCC97H cells. Description: Assay for inhibiting the proliferation of MHCC97H cells (CCK-8). The format is cell-based. The settings on record: Homo sapiens. In outline: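 Cells seeded in 96-well plates overnight, then exposed 72 h to 9 three-fold dilutions of compound (0.25% DMSO final). Viability by CCK-8 (1-2 h at 37° C., OD 450 nm), survival normalized to untreated and cell-free blanks; IC50 by curve fitting.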

Sequence of c-MET kinase (P08581 25-1390): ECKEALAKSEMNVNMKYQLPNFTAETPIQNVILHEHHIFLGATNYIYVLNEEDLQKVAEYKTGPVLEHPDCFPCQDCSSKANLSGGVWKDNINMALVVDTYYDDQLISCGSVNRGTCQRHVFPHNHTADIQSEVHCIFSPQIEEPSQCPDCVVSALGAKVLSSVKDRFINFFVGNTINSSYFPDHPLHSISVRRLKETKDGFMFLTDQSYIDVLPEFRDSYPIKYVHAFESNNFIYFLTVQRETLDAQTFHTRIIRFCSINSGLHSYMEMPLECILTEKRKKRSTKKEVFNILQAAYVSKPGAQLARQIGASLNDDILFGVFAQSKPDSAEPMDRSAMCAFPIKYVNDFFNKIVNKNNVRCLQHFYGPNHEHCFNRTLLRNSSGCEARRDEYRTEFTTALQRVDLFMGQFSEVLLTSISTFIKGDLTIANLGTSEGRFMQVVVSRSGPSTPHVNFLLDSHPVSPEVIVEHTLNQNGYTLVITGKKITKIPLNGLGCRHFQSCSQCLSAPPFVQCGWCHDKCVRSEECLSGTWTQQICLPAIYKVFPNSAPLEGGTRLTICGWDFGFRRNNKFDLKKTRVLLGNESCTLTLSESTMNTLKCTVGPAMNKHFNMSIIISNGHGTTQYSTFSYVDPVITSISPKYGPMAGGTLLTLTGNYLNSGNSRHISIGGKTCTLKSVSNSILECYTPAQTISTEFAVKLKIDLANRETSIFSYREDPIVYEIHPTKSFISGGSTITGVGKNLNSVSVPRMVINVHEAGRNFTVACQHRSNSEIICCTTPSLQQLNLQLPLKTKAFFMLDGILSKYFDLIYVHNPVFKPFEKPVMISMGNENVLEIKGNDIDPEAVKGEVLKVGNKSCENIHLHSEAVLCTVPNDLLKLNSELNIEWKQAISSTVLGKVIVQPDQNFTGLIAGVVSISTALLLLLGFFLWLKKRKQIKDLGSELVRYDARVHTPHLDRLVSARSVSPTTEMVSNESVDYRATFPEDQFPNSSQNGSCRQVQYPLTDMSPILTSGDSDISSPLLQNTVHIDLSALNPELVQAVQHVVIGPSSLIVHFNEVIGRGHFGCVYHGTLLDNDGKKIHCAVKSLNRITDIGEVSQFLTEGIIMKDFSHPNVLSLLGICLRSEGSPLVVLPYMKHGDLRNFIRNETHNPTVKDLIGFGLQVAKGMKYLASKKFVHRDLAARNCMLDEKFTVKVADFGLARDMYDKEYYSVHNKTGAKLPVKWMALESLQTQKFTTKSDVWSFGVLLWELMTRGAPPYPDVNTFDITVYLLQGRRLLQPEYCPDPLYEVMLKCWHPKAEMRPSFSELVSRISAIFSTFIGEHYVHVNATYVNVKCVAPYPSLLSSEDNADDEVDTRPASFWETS
Sequence of VEGFR-2 kinase (P35968 20-1356): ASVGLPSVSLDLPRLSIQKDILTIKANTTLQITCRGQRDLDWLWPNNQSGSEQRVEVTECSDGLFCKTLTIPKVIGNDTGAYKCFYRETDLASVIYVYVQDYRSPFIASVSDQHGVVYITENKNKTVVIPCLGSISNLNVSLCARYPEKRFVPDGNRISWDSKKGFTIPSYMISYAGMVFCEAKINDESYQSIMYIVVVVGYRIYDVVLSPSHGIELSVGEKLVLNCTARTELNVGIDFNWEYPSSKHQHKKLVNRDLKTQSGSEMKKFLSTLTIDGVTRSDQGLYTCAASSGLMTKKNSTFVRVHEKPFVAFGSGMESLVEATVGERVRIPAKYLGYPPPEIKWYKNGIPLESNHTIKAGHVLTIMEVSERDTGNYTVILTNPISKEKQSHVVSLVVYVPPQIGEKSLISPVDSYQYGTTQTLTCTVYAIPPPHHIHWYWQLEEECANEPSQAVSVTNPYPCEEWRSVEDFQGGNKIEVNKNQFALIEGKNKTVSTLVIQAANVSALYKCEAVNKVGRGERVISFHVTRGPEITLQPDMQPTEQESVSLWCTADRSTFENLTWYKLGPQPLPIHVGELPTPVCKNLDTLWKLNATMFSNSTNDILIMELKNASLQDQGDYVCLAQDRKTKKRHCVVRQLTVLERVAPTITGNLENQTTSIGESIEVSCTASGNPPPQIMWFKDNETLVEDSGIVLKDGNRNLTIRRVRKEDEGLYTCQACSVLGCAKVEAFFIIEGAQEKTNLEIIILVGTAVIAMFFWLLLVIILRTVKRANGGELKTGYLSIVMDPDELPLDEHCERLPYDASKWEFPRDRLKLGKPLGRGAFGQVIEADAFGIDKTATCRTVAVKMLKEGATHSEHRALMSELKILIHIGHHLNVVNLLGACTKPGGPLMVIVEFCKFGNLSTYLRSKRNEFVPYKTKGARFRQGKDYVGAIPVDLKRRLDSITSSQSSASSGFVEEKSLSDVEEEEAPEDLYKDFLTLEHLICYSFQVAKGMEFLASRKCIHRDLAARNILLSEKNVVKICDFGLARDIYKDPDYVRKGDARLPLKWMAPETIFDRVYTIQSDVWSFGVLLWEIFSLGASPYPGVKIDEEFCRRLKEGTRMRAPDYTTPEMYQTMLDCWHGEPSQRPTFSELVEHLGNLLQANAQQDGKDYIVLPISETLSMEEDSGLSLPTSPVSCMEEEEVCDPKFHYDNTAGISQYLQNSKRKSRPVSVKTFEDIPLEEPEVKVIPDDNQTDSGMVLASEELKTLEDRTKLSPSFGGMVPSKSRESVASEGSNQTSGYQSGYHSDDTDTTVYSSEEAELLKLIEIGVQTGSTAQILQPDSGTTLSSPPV

Regarding `COc1cc2nccc(Oc3ccc(NC(=O)c4cn(CCCO)c(=O)n(-c5ccc(F)cc5)c4=O)cc3F)c2c2c1OCCO2` [Example 99, N-(3-fluoro-4-((5-methoxy-2,3-dihydro-[1,4]dioxino[2,3-f]quinolin-10-yl)oxy)phenyl)-3-(4-fluorophenyl)-1-(3-hydroxypropyl)-2,4-dioxo-1,2,3,4-tetrahydropyrimidine-5-carboxamide], the IC50 in experiment [1] is not above 50 nM; in experiment [2], 500 to 5000 nM; in experiment [3] it was 50 to 200 nM.

In the case of `CCOc1ccn(-c2ccc(F)cc2)c(=O)c1C(=O)Nc1ccc(Oc2ncnc3cc(OCCCN4CCOCC4)c4c(c23)OCCO4)c(F)c1` [Example 6, N-(3-fluoro-4-((5-(3-morpholinopropoxy)-2,3-dihydro-[1,4]dioxino[2,3-f]quinazolin-10-yl)oxy)phenyl)-1-(4-fluorophenyl)-4-ethoxy-2-oxo-1,2-dihydropyridine-3-carboxamide], the results for the IC50 in experiment [1], in experiment [2] and in experiment [3] were not above 50 nM, 50 to 500 nM and 50 to 200 nM, respectively.

For `COCCOc1cc2nccc(Oc3ccc(NC(=O)c4c(OC)ccn(-c5ccc(F)cc5)c4=O)cc3F)c2c2c1OCCO2` [Example 35, N-(3-fluoro-4-((5-(2-methoxyethoxy)-2,3-dihydro-[1,4]dioxino[2,3-f]quinolin-10-yl)oxy)phenyl)-1-(4-fluorophenyl)-4-methoxy-2-oxo-1,2-dihydropyridine-3-carboxamide], the IC50 in experiment [1], in experiment [2] and in experiment [3] was not above 50 nM in each case.

With `O=C(Nc1ccc(Oc2ncnc3cc(OCCCN4CCOCC4)c4c(c23)OCCO4)c(F)c1)c1cccn(-c2ccc(F)cc2)c1=O` [Example 4, N-(3-fluoro-4-((5-(3-morpholinopropoxy)-2,3-dihydro-[1,4]dioxino[2,3-f]quinazolin-10-yl)oxy)phenyl)-1-(4-fluorophenyl)-2-oxo-1,2-dihydropyridine-3-carboxamide], the IC50 in experiment [1], in experiment [2] and in experiment [3] was not above 50 nM in each case.

Consider `CC(C)n1cc(C(=O)Nc2ccc(Oc3ccnc4cc(OCC5(N)CC5)c5c(c34)OCCO5)c(F)c2)c(=O)n(-c2ccc(F)cc2)c1=O` [Example 106, N-(3-fluoro-4-((5-((1-aminocyclopropyl)methoxy)-2,3-dihydro-[1,4]dioxino[2,3-f]quinolin-1 0-yl)oxy)phenyl)-3-(4-fluorophenyl)-1-isopropyl-2,4-dioxo-1,2,3,4-tetrahydropyrimidine-5-carboxamide], for which the values for the IC50 in experiment [1], in experiment [2] and in experiment [3] were 50 to 500 nM, more than 5000 nM and 50 to 200 nM, respectively.

Consider `COc1cc2nccc(Oc3ccc(NC(=O)c4c(OC)ccn(-c5ccc(F)cc5)c4=O)cc3F)c2c2c1OCCO2` [Example 18, N-(3-fluoro-4-((5-methoxy-2,3-dihydro-[1,4]dioxino[2,3-f]quinolin-10-yl)oxy)phenyl)-1-(4-fluorophenyl)-4-methoxy-2-oxo-1,2-dihydropyridine-3-carboxamide], for which the IC50 in experiment [1], in experiment [2] and in experiment [3] was not above 50 nM each time.

On to `CCOc1ccn(-c2cccc(F)c2)c(=O)c1C(=O)Nc1ccc(Oc2ccnc3cc(OC)c4c(c23)OCCO4)c(F)c1` [Example 114, N-(3-fluoro-4-((5-methoxy-2,3-dihydro-[1,4]dioxino[2,3-f]quinolin-10-yl)oxy)phenyl)-2-oxo-4-ethoxy-1-(3-fluorophenyl)-1,2-dihydropyridin-3-carboxamide], for which the results for the IC50 in experiment [1], in experiment [2] and in experiment [3] were not above 50 nM, 50 to 500 nM and 50 to 200 nM, respectively.

As to `CCOc1ccn(-c2ccc(F)cc2)c(=O)c1C(=O)Nc1ccc(Oc2ccnc3cc(OCC4(N)CC4)c4c(c23)OCCO4)c(F)c1` [Example 105, N-(4-((5-((1-aminocyclopropyl)methoxy)-2,3-dihydro-[1,4]dioxino[2,3-f]quinolin-10-yl)oxy)-3-fluorophenyl)-4-ethoxy-1-(4-fluorophenyl)-2-oxo-1,2-dihydropyridine-3-carboxamide], the IC50 in experiment [1] was not above 50 nM; in experiment [2], 50 to 500 nM; in experiment [3], 50 to 200 nM.

Consider `Cn1cc(C(=O)Nc2ccc(Oc3ccnc4cc(OCCCN5CCOCC5)c5c(c34)OCCO5)c(F)c2)c(=O)n(-c2ccc(F)cc2)c1=O` [Example 15, N-(3-fluoro-4-((5-(3-morpholinopropoxy)-2,3-dihydro-[1,4]dioxino[2,3-f]quinolin-10-yl)oxy)phenyl)-3-(4-fluorophenyl)-1-methyl-2,4-dioxo-1,2,3,4-tetrahydropyrimidine-5-carboxamide], for which the IC50 in experiment [1] was not above 50 nM; in experiment [2], 50 to 500 nM; in experiment [3] it was not above 50 nM.

With `COc1cc2nccc(Oc3cc(Cl)c(NC(=O)c4cn(C)c(=O)n(-c5ccc(F)cc5)c4=O)cc3F)c2c2c1OCCO2` [Example 116, N-(2-chloro-5-fluoro-4-((5-methoxy-2,3-dihydro-[1,4]dioxino[2,3-f]quinolin-10-yl)oxy)phenyl)-3-(4-fluorophenyl)-1-methyl-2,4-dioxo-1,2,3,4-tetrahydropyrimidine-5-carboxamide], the IC50 in experiment [1] is not above 50 nM; in experiment [2] it was more than 5000 nM; in experiment [3] it was 50 to 200 nM.

For `COCCOc1cc2nccc(Oc3cc(C)c(NC(=O)c4cn(C)c(=O)n(-c5ccc(F)cc5)c4=O)cc3F)c2c2c1OCCO2` [Example 179, N-(5-fluoro-4-((5-(2-methoxyethoxy)-2,3-dihydro-[1,4]dioxino[2,3-f]quinolin-10-yl)oxy)-2-methylphenyl)-3-(4-fluorophenyl)-1-methyl-2,4-dioxo-1,2,3,4-tetrahydropyrimidine-5-carboxamide], the IC50 in experiment [1] was not above 50 nM; in experiment [2] it was 500 to 5000 nM; in experiment [3] it was not above 50 nM.

As to `COCCOc1cc2nccc(Oc3ccc(NC(=O)c4cccn(-c5ccc(F)cc5)c4=O)cc3F)c2c2c1OCCO2` [Example 34, N-(3-fluoro-4-((5-(2-methoxyethoxy)-2,3-dihydro-[1,4]dioxino[2,3-f]quinolin-10-yl)oxy)phenyl)-1-(4-fluorophenyl)-2-oxo-1,2-dihydropyridine-3-carboxamide], the IC50 in experiment [1], in experiment [2] and in experiment [3] was not above 50 nM throughout.

As for `CCOc1ccn(-c2ccc(C)cc2)c(=O)c1C(=O)Nc1ccc(Oc2ccnc3cc(OC)c4c(c23)OCCO4)c(F)c1` [Example 112, N-(3-fluoro-4-((5-methoxy-2,3-dihydro-[1,4]dioxino[2,3-f]quinolin-10-yl)oxy)phenyl)-2-oxo-4-ethoxy-1-(4-methylphenyl)-1,2-dihydropyridin-3-carboxamide], the IC50 is not above 50 nM in experiment [1], 50 to 500 nM in experiment [2] and 200 to 1000 nM in experiment [3].

`COc1cc2nccc(Oc3cc(C)c(NC(=O)c4cn(C)c(=O)n(-c5ccc(F)cc5)c4=O)cc3F)c2c2c1OCCO2` [Example 177, N-(5-fluoro-4-((5-methoxy-2,3-dihydro-[1,4]dioxino[2,3-f]quinolin-10-yl)oxy)-2-methylphenyl)-3-(4-fluorophenyl)-1-methyl-2,4-dioxo-1,2,3,4-tetrahydropyrimidine-5-carboxamide]: the values for the IC50 in experiment [1], in experiment [2] and in experiment [3] were not above 50 nM, 500 to 5000 nM and 50 to 200 nM, respectively.

Consider `CCn1cc(C(=O)Nc2cc(F)c(Oc3ccnc4cc(OCCOC)c5c(c34)OCCO5)cc2C)c(=O)n(-c2ccc(F)cc2)c1=O` [Example 180, N-(5-fluoro-4-((5-(2-methoxyethoxy)-2,3-dihydro-[1,4]dioxino[2,3-f]quinolin-10-yl)oxy)-2-methylphenyl)-3-(4-fluorophenyl)-1-ethyl-2,4-dioxo-1,2,3,4-tetrahydropyrimidine-5-carboxamide], for which the IC50 in experiment [1] was not above 50 nM; in experiment [2] it was 500 to 5000 nM; in experiment [3], not above 50 nM.

For the compound `COc1cc2nccc(Oc3ccc(NC(=O)c4cccn(-c5ccc(F)cc5)c4=O)cc3F)c2c2c1OCCO2` [Example 17, N-(3-fluoro-4-((5-methoxy-2,3-dihydro-[1,4]dioxino[2,3-f]quinolin-10-yl)oxy)phenyl)-1-(4-fluorophenyl)-2-oxo-1,2-dihydropyridine-3-carboxamide], the IC50 in experiment [1], in experiment [2] and in experiment [3] was not above 50 nM in each case.

Turning to `CCOc1ccn(-c2ccc(F)cc2)c(=O)c1C(=O)Nc1ccc(Oc2ccnc3cc(OCCCN4CCCCC4)c4c(c23)OCCO4)c(F)c1` [Example 33, N-(3-fluoro-4-((5-(3-(piperidin-1-yl)propoxy)-2,3-dihydro-[1,4]dioxino[2,3-f]quinolin-10-yl)oxy)phenyl)-1-(4-fluorophenyl)-4-ethoxy-2-oxo-1,2-dihydropyridine-3-carboxamide], the IC50 in experiment [1], in experiment [2] and in experiment [3] was not above 50 nM each time.

On to `CCOc1ccn(-c2ccc(F)cc2)c(=O)c1C(=O)Nc1ccc(Oc2ccnc3cc(OCCOC)c4c(c23)OCCO4)c(F)c1` [Example 36, N-(3-fluoro-4-((5-(2-methoxyethoxy)-2,3-dihydro-[1,4]dioxino[2,3-f]quinolin-10-yl)oxy)phenyl)-1-(4-fluorophenyl)-4-ethoxy-2-oxo-1,2-dihydropyridine-3-carboxamide], for which the IC50 in experiment [1], in experiment [2] and in experiment [3] was not above 50 nM in each case.
